In patent publication US20250250230A1, “HETEROCYCLIC COMPOUND” (TAKEDA PHARMACEUTICAL COMPANY LIMITED, priority 2022, published 2025):

Target: T1, human orexin type 2 receptor (Homo sapiens, UniProt O43614)
T1 construct: expressed in transfected cells
T1 sequence (O43614 1-444): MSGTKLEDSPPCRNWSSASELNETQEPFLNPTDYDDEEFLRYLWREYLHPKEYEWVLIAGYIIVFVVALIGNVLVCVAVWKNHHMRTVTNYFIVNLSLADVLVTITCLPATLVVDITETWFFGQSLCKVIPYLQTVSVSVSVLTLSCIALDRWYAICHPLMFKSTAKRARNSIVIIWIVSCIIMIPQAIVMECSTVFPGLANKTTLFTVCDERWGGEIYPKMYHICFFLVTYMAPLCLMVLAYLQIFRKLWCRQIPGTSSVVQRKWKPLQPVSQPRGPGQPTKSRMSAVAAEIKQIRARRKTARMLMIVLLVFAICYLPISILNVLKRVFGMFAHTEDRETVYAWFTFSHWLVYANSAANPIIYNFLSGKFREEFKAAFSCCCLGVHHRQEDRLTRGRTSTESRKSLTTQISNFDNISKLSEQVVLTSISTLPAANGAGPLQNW
Assay: Measurement of orexin type 2 receptor agonist activity (calcium fluorescence, Fluo-4 AM, FDSS)
Type: cell-based
Conditions: test compound 3 μM; CHO cells expressing human OX2 receptor; DMSO = 0%, orexin A (human) = 100%
Outline: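 CHO-K1 cells stably expressing human OX2R were loaded with Fluo-4 AM (30 min 37 °C, 30 min RT) in HEPES-buffered HBSS with 0.1% BSA and probenecid. Calcium fluorescence was followed on FDSS for 2 min after compound addition; activity normalised to DMSO (0%) and 10 nM orexin A (100%).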

SMILES | OX2R agonist activity (3 μM, %)
CS(=O)(=O)NC1CCCN(C(=O)C2CC2c2ccc(F)cc2-c2ccccc2)CC1 (racemic) [Example 87, a mixture of rac-N-{(4R)-1-[(1R,2R)-2-(5-fluoro[1,1′-biphenyl]-2-yl)cyclopropane-1-carbonyl]azepan-4-yl}methanesulfonamide and rac-N-{(4S)-1-[(1R,2R)-2-(5-fluoro[1,1′-biphenyl]-2-yl)cyclopropane-1-carbonyl]azepan-4-yl}methanesulfonamide] | 81%
Cc1cccc(C2CC2C(=O)N2CCCC(NS(C)(=O)=O)C2)c1-c1ccccc1 (racemic) [Example 89, a mixture of rac-N-{(3R)-1-[(1R,2R)-2-(6-methyl[1,1′-biphenyl]-2-yl)cyclopropane-1-carbonyl]piperidin-3-yl}methanesulfonamide and rac-N-{(3S)-1-[(1R,2R)-2-(6-methyl[1,1′-biphenyl]-2-yl)cyclopropane-1-carbonyl]piperidin-3-yl}methanesulfonamide] | 64%
CS(=O)(=O)NC1CCCN(C(=O)C2CC2c2c(F)cccc2-c2ccccc2)CC1 (racemic) [Example 95, a mixture of rac-N-{(4R)-1-[(1R,2R)-2-(3-fluoro[1,1′-biphenyl]-2-yl)cyclopropane-1-carbonyl]azepan-4-yl}methanesulfonamide and rac-N-{(4S)-1-[(1R,2R)-2-(3-fluoro[1,1′-biphenyl]-2-yl)cyclopropane-1-carbonyl]azepan-4-yl}methanesulfonamide] | 61%
CS(=O)(=O)NC1CCCN(C(=O)C2CC2c2cc(F)ccc2-c2c(F)cccc2F)CC1 (racemic) [Example 96, a mixture of rac-N-{(4R)-1-[(1R,2R)-2-(2′,4,6′-trifluoro[1,1′-biphenyl]-2-yl)cyclopropane-1-carbonyl]azepan-4-yl}methanesulfonamide and rac-N-{(4S)-1-[(1R,2R)-2-(2′,4,6′-trifluoro[1,1′-biphenyl]-2-yl)cyclopropane-1-carbonyl]azepan-4-yl}methanesulfonamide] | 62%
CS(=O)(=O)NC1CCCN(C(=O)C2CC2c2cc(F)ccc2-c2c(F)cccc2F)C1 (racemic) [Example 98, a mixture of rac-N-{(3R)-1-[(1R,2R)-2-(2′,4,6′-trifluoro[1,1′-biphenyl]-2-yl)cyclopropane-1-carbonyl]piperidin-3-yl}methanesulfonamide and rac-N-{(3S)-1-[(1R,2R)-2-(2′,4,6′-trifluoro[1,1′-biphenyl]-2-yl)cyclopropane-1-carbonyl]piperidin-3-yl}methanesulfonamide] | 56%
CS(=O)(=O)NC1CCCN(C(=O)C2CC2c2cccc(F)c2-c2ccccc2F)C1 (racemic) [Example 105, a mixture of rac-N-{(3R)-1-[(1R,2R)-2-(2′,6-difluoro[1,1′-biphenyl]-2-yl)cyclopropane-1-carbonyl]piperidin-3-yl}methanesulfonamide and rac-N-{(3S)-1-[(1R,2R)-2-(2′,6-difluoro[1,1′-biphenyl]-2-yl)cyclopropane-1-carbonyl]piperidin-3-yl}methanesulfonamide] | 60%
CS(=O)(=O)NC1CCCN(C(=O)C2CC2c2cccc(F)c2-c2ccccc2F)CC1 (racemic) [Example 106, a mixture of rac-N-{(4R)-1-[(1R,2R)-2-(2′,6-difluoro[1,1′-biphenyl]-2-yl)cyclopropane-1-carbonyl]azepan-4-yl}methanesulfonamide and rac-N-{(4S)-1-[(1R,2R)-2-(2′,6-difluoro[1,1′-biphenyl]-2-yl)cyclopropane-1-carbonyl]azepan-4-yl}methanesulfonamide] | 63%
CCS(=O)(=O)NC1CCCN(C(=O)C2CC2c2ccccc2-c2c(F)cccc2F)CC1 (racemic) [Example 112, a mixture of rac-N-{(4R)-1-[(1R,2R)-2-(2′,6′-difluoro[1,1′-biphenyl]-2-yl)cyclopropane-1-carbonyl]azepan-4-yl}ethanesulfonamide and rac-N-{(4S)-1-[(1R,2R)-2-(2′,6-difluoro[1,1′-biphenyl]-2-yl)cyclopropane-1-carbonyl]azepan-4-yl}ethanesulfonamide] | 101%
CN(C)S(=O)(=O)NC1CCN(C(=O)C2CC2c2ccccc2-c2c(F)cccc2F)C1 (racemic) [Example 113, a mixture of rac-N′-{(3R)-1-[(1R,2R)-2-(2′,6′-difluoro[1,1′-biphenyl]-2-yl)cyclopropane-1-carbonyl]pyrrolidin-3-yl}-N,N-dimethylsulfuric diamide and rac-N′-{(3S)-1-[(1R,2R)-2-(2′,6-difluoro[1,1′-biphenyl]-2-yl)cyclopropane-1-carbonyl]pyrrolidin-3-yl}-N,N-dimethylsulfuric diamide] | 100%
CN(C)S(=O)(=O)NC1CCCN(C(=O)C2CC2c2ccccc2-c2c(F)cccc2F)CC1 (racemic) [Example 114, a mixture of rac-N′-{(4R)-1-[(1R,2R)-2-(2′,6′-difluoro[1,1′-biphenyl]-2-yl)cyclopropane-1-carbonyl]azepan-4-yl}-N,N-dimethylsulfuric diamide and rac-N′-{(4S)-1-[(1R,2R)-2-(2′,6′-difluoro[1,1′-biphenyl]-2-yl)cyclopropane-1-carbonyl]azepan-4-yl}-N,N-dimethylsulfuric diamide] | 102%
O=C(C1CC1c1ccccc1-c1c(F)cccc1F)N1CCCC(NS(=O)(=O)C2CC2)C1 (racemic) [Example 123, a mixture of rac-N-{(3R)-1-[(1R,2R)-2-(2′,6′-difluoro[1,1′-biphenyl]-2-yl)cyclopropane-1-carbonyl]piperidin-3-yl}cyclopropanesulfonamide and rac-N-{(3S)-1-[(1R,2R)-2-(2′,6′-difluoro[1,1′-biphenyl]-2-yl)cyclopropane-1-carbonyl]piperidin-3-yl}cyclopropanesulfonamide] | 100%
CS(=O)(=O)NC12CC1CN(C(=O)C1CC1c1ccccc1-c1c(F)cccc1F)C2 (racemic) [Example 124, a mixture of rac-N-{(1S,5R)-3-[(1R,2R)-2-(2′,6′-difluoro[1,1′-biphenyl]-2-yl)cyclopropane-1-carbonyl]-3-azabicyclo[3.1.0]hexan-1-yl}methanesulfonamide and rac-N-{(1R,5S)-3-[(1R,2R)-2-(2′,6′-difluoro[1,1′-biphenyl]-2-yl)cyclopropane-1-carbonyl]-3-azabicyclo[3.1.0]hexan-1-yl}methanesulfonamide] | 104%
CS(=O)(=O)NC1CCN(C(=O)C2CC2c2c(F)cccc2-c2ccccc2Cl)C1 (racemic) [Example 126, a mixture of rac-N-{(3R)-1-[(1R,2R)-2-(2′-chloro-3-fluoro[1,1′-biphenyl]-2-yl)cyclopropane-1-carbonyl]pyrrolidin-3-yl}methanesulfonamide and rac-N-{(3S)-1-[(1R,2R)-2-(2′-chloro-3-fluoro[1,1′-biphenyl]-2-yl)cyclopropane-1-carbonyl]pyrrolidin-3-yl}methanesulfonamide] | 89%
CS(=O)(=O)NCC1CCN1C(=O)C1CC1c1ccccc1-c1c(F)cccc1F (racemic) [Example 127, a mixture of rac-N-({(2R)-1-[(1R,2R)-2-(2′,6′-difluoro[1,1′-biphenyl]-2-yl)cyclopropane-1-carbonyl]azetidin-2-yl}methyl)methanesulfonamide and rac-N-({(2S)-1-[(1R,2R)-2-(2′,6′-difluoro[1,1′-biphenyl]-2-yl)cyclopropane-1-carbonyl]azetidin-2-yl}methyl)methanesulfonamide] | 57%
CS(=O)(=O)NCC1CCCN(C(=O)C2CC2c2ccccc2-c2c(F)cccc2F)C1 (racemic) [Example 128, a mixture of rac-N-({(3R)-1-[(1R,2R)-2-(2′,6′-difluoro[1,1′-biphenyl]-2-yl)cyclopropane-1-carbonyl]piperidin-3-yl}methyl)methanesulfonamide and rac-N-({(3S)-1-[(1R,2R)-2-(2′,6′-difluoro[1,1′-biphenyl]-2-yl)cyclopropane-1-carbonyl]piperidin-3-yl}methyl)methanesulfonamide] | 89%
CS(=O)(=O)NC1CN(C(=O)C2CC2c2ccccc2-c2c(F)cccc2F)CCC1(F)F (racemic) [Example 129, a mixture of rac-N-{(3R)-1-[(1R,2R)-2-(2′,6′-difluoro[1,1′-biphenyl]-2-yl)cyclopropane-1-carbonyl]-4,4-difluoropiperidin-3-yl}methanesulfonamide and rac-N-{(3S)-1-[(1R,2R)-2-(2′,6′-difluoro[1,1′-biphenyl]-2-yl)cyclopropane-1-carbonyl]-4,4-difluoropiperidin-3-yl}methanesulfonamide] | 101%
